In patent publication US11596662B2, “Passion flower seed extract, and cosmetic, pharmaceutical or dermatological compositions containing same” (priority 2015, dated 2023):

Legend:
MMP1 = assay: IR-induced production of MMP1 in normal human fibroblasts (ELISA); format: cell-based; settings: 10^−7 M, 48 hours after IR 0.57 kJ/cm^2
Experimental: The ability of an extract of the invention to protect dermal cells from the harmful effects of IR rays was studied by evaluating MMP1 production.
Normal human fibroblasts (NHF) were incubated in the presence of a 0.001% extract of the invention, as obtained in Example 1, or of 10^−7 M dexamethasone (reference anti-inflammatory) for 48 hours following 1 hour of infrared irradiation (0.57 kJ/cm^2).
After incubation, the supernatants are collected in order to assay released MMP1 (ELISA Kit, R&D Systems).
(§1) The significance of the results was verified by Student's t-test.

haem oxygenase 1 (HMOX1) = assay: HMOX1 production by fibroblasts (ELISA); format: cell-based, human; settings: 24 hours
Experimental: An extract of the invention was analysed on the protein expression of haem oxygenase.
Normal human fibroblasts were treated for 24 hours with a 0.002% and a 0.005% (w/v) extract of the invention, as obtained in Example 1, and with 5 and 10 μM curcumin (reference hormetin).
At the end of the treatment, intracellular haem oxygenase 1 (or HMOX1 or H01) was quantified using an ELISA technique. Staining, proportional to the quantity of the marker of interest, was measured by reading the optical density (OD) at 450 nm, and the value obtained was related to the quantity of cells obtained by a protein assay using the BC Assay (Interchim).
The results were statistically analysed by one-way ANOVA followed by Dunnett's test (GraphPad PRISM version 5.02 software, GraphPad Software, San Diego, Calif., USA).

[1] = test system: keratinocytes treated with 9 μg/ml BaP; assay: ROS production in keratinocytes treated with 9 μg/ml BaP (H2DCF-DA probe); format: cell-based, human; settings: 24 hours, then 9 μg/ml BaP 20 minutes
Experimental: The keratinocytes were then stimulated with 9 μg/ml benzo-α-pyrene (BaP) for 20 minutes. ROS production was evaluated by measurement of fluorescence.
as §1

[2] = test system: keratinocytes treated by UV at 2400 J/m^2; assay: ROS production in keratinocytes treated by UV at 2400 J/m^2; format: cell-based, human; settings: 500 μM
Experimental: The antioxidant potential of an extract of the invention with respect to UV-irradiation-induced reactive oxygen species (ROS) was studied.
Normal human keratinocytes were incubated for 24 hours in the presence of a 0.001% and a 0.005% (w/v) extract of the invention, as obtained in Example 1, or of 500 μM vitamin C (reference antioxidant), before incorporation of the H2DCF-DA probe (incubation for 1 hour).
The keratinocytes were then stimulated with UV at 2400 J/m^2 (2000 J/m^2 UVB and 400 J/m^2 UVA) then returned to culture in the presence of a 0.001% and a 0.005% (w/v) extract of the invention, as obtained in Example 1, or of 500 μM vitamin C, for 15 minutes at 37° C.
The production of reactive oxygen species (ROS) was evaluated by measurement of fluorescence and the value obtained was normalized to the quantity of cells obtained using an MTT cell viability assay.
(§2) The results were statistically analysed by one-way ANOVA followed by Tukey's test (GraphPad PRISM version 5.02 software, GraphPad Software, San Diego, Calif., USA).

[3] = test system: H2O2-treated keratinocytes; assay: ROS production in H2O2-treated keratinocytes (H2DCF-DA probe); format: cell-based, human; settings: 24 hours, then 100 μM H2O2 20 minutes
Experimental: The antioxidant potential of an extract of the invention with respect to H2O2 induction of reactive oxygen species was studied.
Normal human keratinocytes were incubated for 24 hours in the presence of a 0.002%, a 0.005% and a 0.01% (w/v) extract of the invention, as obtained in Example 1, or of 500 μM vitamin C and 10 μM quercetin (reference antioxidants) before incorporation of the H2DCF-DA probe (incubation for 60 minutes).
The keratinocytes were then stimulated with 100 μM hydrogen peroxide (H2O2) for 20 minutes and the production of reactive oxygen species (ROS) was evaluated by measurement of fluorescence.
as §2

prostaglandin E2 (PGE2) = assay: PGE2 production in PMA-treated keratinocytes; format: cell-based, human; settings: 10^−6 M, 24 hours pretreatment, then PMA 0.1 μg/ml 24 hours
Experimental: The anti-inflammatory protection of an extract of the invention with respect to a chemical molecule, PMA, was studied by analysis of the release of prostaglandin 2 (PGE2).
Normal human keratinocytes were pretreated with a 0.002% and a 0.005% extract of the invention, as obtained in Example 1, and with 10^−6 M indomethacin (anti-inflammatory control of the prostaglandin pathway) for 24 hours at 37° C., in order to be able to measure a level of protection of the active agent with respect to inflammation by 0.1 μg/ml PMA (phorbol 12-myristate 13-acetate) used on these same cell monolayers for a further 24 hours. At the end of the treatment, the supernatants are collected and an assay of prostaglandin E2 (PGE2; R&D Systems) is performed. Staining, proportional to the amount of PGE2, was measured by reading the optical density (OD) at 450 nm.
as §1

Nrf2 = Nrf2 activity in ARE-luciferase-transfected HaCaT keratinocytes; format: cell-based; settings: 6 hours
Experimental: The effect of the extract of the invention was evaluated with respect to activation of translocation of Nrf2, precursor of the cascade responsible for the hormetic response and for certain detoxification pathways of the organism.
ARE-luciferase-transfected HaCaT keratinocytes, containing the antioxidant response element (ARE) plasmid NQO1, which is a specific plasmid for activation of Nrf2 and luciferase (reporter gene), were treated for 6 hours at 37° C. with an extract of the invention, as obtained in Example 1, at concentrations ranging from 0.01% to 0.0005% (w/v) and with a positive reference, 20 μM tert-butylhydroquinone.
At the end of the treatment, the cell monolayers are lysed, luciferase activity is assayed using a “Luciferase Assay Kit” from PROMEGA, and the protein content of each lysate is assayed using the Bradford method (BioRad).

SMILES: C[C@@H]1C[C@H]2[C@@H]3CCC4=CC(=O)C=C[C@]4(C)[C@@]3(F)[C@@H](O)C[C@]2(C)[C@@]1(O)C(=O)CO [Dexamethasone, dexamethasone]
- % protection (IR-induced MMP1) (MMP1): 102%
- MMP1 (MMP1): 9.3 ng/mL

SMILES: COc1cc(/C=C/C(=O)CC(=O)/C=C/c2ccc(O)c(OC)c2)ccc1O [Curcumin, curcumin]
- HMOX1 (ng/ml on quantity of cells) (haem oxygenase 1 (HMOX1); 5 μM): 0.060 ± 0.002 ng/ml on quantity of cells
- HMOX1 (ng/ml on quantity of cells) (haem oxygenase 1 (HMOX1); 10 μM): 0.105 ± 0.006 ng/ml on quantity of cells
- ROS % change (Significance) ([1]; 10 μM): −16%
- ROS (fluorescence units) ([1]; 10 μM): 14065 ± 1231 fluorescence units

SMILES: O=C1O[C@H]([C@@H](O)CO)C(O)=C1O [vitamin C]
- ROS (fluorescence intensity/MTT) ([2]; UV 2400 J/m^2): 26005 ± 3723 fluorescence intensity/MTT
- ROS % change ([2]; UV 2400 J/m^2, vs control with UVs): −40%
- ROS % change (Significance) ([3]; 500 μM): −51%
- ROS (fluorescence units) ([3]; 500 μM): 21719.018 ± 3174.253 fluorescence units
- ROS % change (Significance) ([1]; 500 μM): −16%
- ROS (fluorescence units) ([1]; 500 μM): 14089 ± 1719 fluorescence units

SMILES: O=c1c(O)c(-c2ccc(O)c(O)c2)oc2cc(O)cc(O)c12 [quercetin]
- ROS % change (Significance) ([3]; 10 μM): −67%
- ROS (fluorescence units) ([3]; 10 μM): 14367.847 ± 1790.753 fluorescence units
- ROS % change (Significance) ([1]; 10 μM): −32%
- ROS (fluorescence units) ([1]; 10 μM): 17140 ± 1930 fluorescence units

SMILES: COc1ccc2c(c1)c(CC(=O)O)c(C)n2C(=O)c1ccc(Cl)cc1 [Indomethacin, indomethacin]
- PGE2 (prostaglandin E2 (PGE2)): 52 ± 8 pg/mL
- inhibition at 1 µM (prostaglandin E2 (PGE2); Homo sapiens, Keratinocyte): 100%

SMILES: Oc1ccc(C=Cc2cc(O)cc(O)c2)cc1 [resveratrol]
- ROS % change (Significance) ([1]; 10 μM): −21%
- ROS (fluorescence units) ([1]; 10 μM): 20357 ± 503 fluorescence units

SMILES: CC(C)(C)c1cc(O)ccc1O [Tert-butylhydroquinone, tert-butylhydroquinone]
- Nrf2 activity (mean normalized RLU/μg of proteins) (Nrf2; 20 μM): 23216.4 RLU/μg of proteins
- Nrf2 Activation (%) (Nrf2; 20 μM (positive reference = 100)): 100%
